According to patent publication US9549943B2, “A3 adenosine receptor ligands for use in treatment of a sexual dysfunction” (CAN-FITE BIOPHARMA LTD., priority 2012, dated 2017):

How the values were obtained:
[1] = test system: patients with moderated to severe Plaque Psoriasis (PS); assay: Phase 2 study of oral CF101 in Plaque Psoriasis; sexual effects; type: in vivo, human; conditions: CF101 1 mg, 2 mg and 4 mg orally twice daily for 12 weeks
Procedure: In a further Phase 2 study, randomized, double-blind, dose-ranging, placebo-controlled study was conducted to determine safety and activity of CF101 administered orally in patients with moderated to severe Plaque Psoriasis (PS). CF101 was administered at 1 mg. 2 mg and 4 mg twice daily for 12 weeks.

[2] = test system: Patients with Moderate-to-Severe Dry Eye Disease; assay: Phase 3 clinical study of oral CF101 in dry eye disease; patient-reported sexual effects; type: in vivo, human
Excerpt: The clinical study (the “Study”) was a Phase 3, Randomized, Double-Masked, Placebo-Controlled, Dose-Finding, Parallel-Group Study of the Safety and Efficacy of Daily CF101 Administered Orally in Patients with Moderate-to-Severe Dry Eye Disease, keratoconjunctivitis sicca (KCS). CF101 is an experimental pharmaceutical composition where the active ingredient is IB-MECA. The study had two primary objectives: (i) determine the efficacy of oral administered CF101, as compared to placebo, when administered at doses of either 0.1 mg or 1.0 mg (namely 0.1 and 1 mg of IB-MECA per each administration, respectively) twice daily for 24 weeks in patients with KCS, and (ii) determine the safety of this drug in the patients. Patients were randomized to receive pills of either CF101 0.1 mg, CF101 1.0 mg, or matching placebo, given orally twice daily (BID) for 24 weeks. A Screening Period of up to 4 weeks that includes a 2-week run-in period that preceded the 24-week treatment period, followed by a 2-week follow-up period. The patients that were enrolled in the study had to meet a number of inclusion criteria (namely criteria that had to be matched for a human subject to participate in the study), including (i) being 18 years of age and over, (ii) being diagnosed with moderate-to-severe Aqueous-Deficient Dry Eye (including Sjögren's Syndrome dry eye), as defined by acceptable clinical criteria, and (iii) a variety of other criteria. Patients that met certain exclusion criteria that related to certain ophthalmic conditions and use of other medications. Clinical outcome in improving KCS symptoms was determined through a variety of relevant ophthalmic parameters. In addition, adverse events were recorded for each patient throughout the study and all effects reported by patients were reported. By the time of filing this patent application the study was still ongoing. […] It should be noted that at this time of reporting of these events the study was still masked, namely it is not known whether the patients received CF101 or placebo and if CF101 than the dose of the drug.

[3] = test system: patients with active rheumatoid arthritis (RA); assay: Phase 2 study of oral CF101 added to weekly Methotrexate in rheumatoid arthritis; sexual effects; type: in vivo, human; conditions: CF101 0.1 mg or 1 mg tablets orally every 12 h for 12 weeks, with weekly MTX
Procedure: Phase 2 study in patients with active rheumatoid arthritis (RA) (randomized, double-blind, placebo-controlled), treated in parallel with CF101 administrated orally when added to weekly Methotrexate (MTX). The patients were given CF101 either 0.1 mg or 1 mg tablets or placebo tablets, taken orally every 12 h for 12 weeks. Washout of other disease-modifying antirheumatic drugs (DMARDs), including biological agents was occurring prior to dosing.

Male C57BL/6j mice = assay: Concanavalin A mouse model treated with allosteric enhancer; erection observed; type: in vivo; conditions: 100 μg/kg orally 8 h after Con.A and 2 h before termination, no signs in control-untreated group
Procedure: Male C57BL/6j mice, 8 weeks of age, were injected intravenously (tail vein) with concanavalin A (Con.A) (20 mg/kg). twenty four hours after Con.A injection, levels of alanine aminotransferase (ALT) and aspirate aminotransferase (AST) were measured in the serum.
The allosteric compound, Luf6000 (also known as N-(3,4-dichloro-phenyl)-2-cyclohexyl-1H-imidazo[4,5-c]quinolin-4-amine), was orally administered at a dose of 100 μg/kg 8 h after Con.A administration and 2 h before termination.

Compound | erection or increase in sexual desire in patients [1] | erection or increase in sexual desire in patients ([2]; oral CF101, patients with moderate to severe dry eye disease (summary statement)) | period during which erection occurred every day after each intake ([2]; patient) | sexual potency reported by patient ([2]; patient (code 104507), oral, twice daily, 0.1 mg or 1 mg, study still masked) | time after intake to unprovoked erection ([2]; patient, after each CF101 intake) | erection reported by patient after intake ([2]; patient, oral, twice daily, 0.1 mg or 1 mg, study still masked) | erection or increase in sexual desire in patients [3] | erection in treated mice (Male C57BL/6j mice) | erection in treated mice (Male C57BL/6j mice; listed as LUF6000)
CNC(=O)[C@H]1O[C@@H](n2cnc3c(NCc4cccc(I)c4)ncnc32)[C@H](O)[C@@H]1O [CF101, N^6-(3-iodobenzyl)-adenosine-5′-N-methyluronamide] | some of the patients experienced erection or increase in sexual desire | some of the patients experienced erection or increase in sexual desire | about 10 days | increase of sexual potency | around 30 minutes | unprovoked erection | some of the patients experienced erection or increase in sexual desire |  | 
Clc1ccc(Nc2nc3ccccc3c3[nH]c(C4CCCCC4)nc23)cc1Cl [Luf6000, N-(3,4-dichloro-phenyl)-2-cyclohexyl-1H-imidazo[4,5-c]quinolin-4-amine] |  |  |  |  |  |  |  | erection was noticed | exhibited erection
